Data as given in patent publication US20240239854A1, “ANTIMICROBIAL PEPTIDES AND MODIFICATIONS THEREOF” (Donald Danforth Plant Science Center, priority 2022, published 2024).
Values after ≈ are worked out from the molar mass of the structure shown. Where two headings read alike, the source gives them in different places. Positions of bridges follow the written chain, without caps; N, C: chain ends. Non-standard residues stand in square brackets, D forms with d. Residues, ends and D or L forms follow the SMILES beside them. Dab = NCC[C@H](N)C(=O)O

Columns and labels:
Botrytis cinerea T-4 = details: for MIC (μM) SFM: Table 18, SFM; for MIC (μM) (SFM + 2 mM CaCl2): Table 18, SFM + 2 mM CaCl2; for MIC (μM) (SFM + 100 mM KCl): Table 18, SFM + 100 mM KCl; for MIC (μM) (SFM + 100 mM NaCl): Table 18, SFM + 100 mM NaCl
B. cinerea [1] = assay: Semi-in planta drop inoculation assay on detached leaves of N. benthamiana, gray mold (Example 4); type: in vivo; details: for Reduction of gray mold symptoms at 3 and 6 μM / Reduction of gray mold symptoms at 1.5 μM: drop inoculation assay; for Reduction of gray mold symptoms at 3 and 6 μM: peptide 3 μM and 6 μM; for Reduction of gray mold symptoms at 1.5 μM: peptide 1.5 μM
F. oxysporum = assay: Antifungal MIC assay in SFM culture media (Example 1); type: cell-based; details: Table 2; SFM culture media
B. cinerea [2] = tested on: B. cinerea
[3] = tested on: Fusarium graminearum PH-1; type: cell-based; details: MIC Day 1; 96-well plate, resazurin cell viability
Botrytis cinerea T4 = type: cell-based
[4] = tested on: Zymoseptoria tritici IPO323; type: cell-based
[5] = Table 4, B. cinerea, SFM + 2 mM CaCl2
[6] = Table 10, SFM + 2 mM CaCl2, values repeat Table 4 (B. cinerea)

## CC[C@H](C)[C@@H]1NC(=O)[C@H](CCCNC(=N)N)NC(=O)[C@@H](NC(=O)[C@H](CCCNC(=N)N)NC(=O)CNC(=O)[C@@H](N)CO)CSSC[C@@H](C(N)=O)NC(=O)[C@H](CC(N)=O)NC(=O)[C@H](CCCCN)NC(=O)[C@H]([C@@H](C)O)NC(=O)[C@H](Cc2ccccc2)NC(=O)[C@H](Cc2ccc(O)cc2)NC(=O)[C@H](Cc2c[nH]c3ccccc23)NC(=O)[C@H](CCCNC(=N)N)NC(=O)[C@H](Cc2ccccc2)NC(=O)[C@H](CC(C)C)NC1=O [GMA1C_V3] (H-SGRCRILFRWYFTKNC-NH2; disulfide 4-16; N-terminus assumed)
Botrytis cinerea T-4
  MIC (μM) SFM: 1.5 µM (≈ 3.07 µg/mL)
  MIC (μM) (SFM + 2 mM CaCl2): 6 µM
  MIC (μM) (SFM + 100 mM KCl): >12 µM
  MIC (μM) (SFM + 100 mM NaCl): 3 µM

## CC(C)C[C@@H]1NC(=O)[C@@H](NC(=O)[C@H](C)NC(=O)CN)CSSC[C@@H](C(=O)N[C@@H](Cc2ccc(O)cc2)C(N)=O)NC(=O)[C@H](Cc2c[nH]cn2)NC(=O)[C@H](CCCNC(=N)N)NC(=O)[C@H](Cc2ccc(O)cc2)NC(=O)[C@H](Cc2ccc(O)cc2)NC(=O)[C@H](Cc2c[nH]c3ccccc23)NC(=O)[C@H](Cc2ccccc2)NC(=O)[C@H](Cc2ccccc2)NC(=O)CNC(=O)[C@H](Cc2ccc(O)cc2)NC(=O)[C@H](Cc2c[nH]cn2)NC(=O)[C@H](CCCCN)NC(=O)[C@H](CO)NC(=O)[C@H](Cc2c[nH]cn2)NC(=O)[C@H](CCCNC(=N)N)NC(=O)[C@H](CC(N)=O)NC(=O)[C@H](CCCCN)NC1=O [GMAOe1C_V4] (H-GACLKNRHSKHYGFFWYYRHCY-NH2; disulfide 3-21; N-terminus assumed)
Botrytis cinerea T-4
  MIC (μM) SFM: 1.5 µM (≈ 4.25 µg/mL)
  MIC (μM) (SFM + 2 mM CaCl2): 6 to 12 µM
  MIC (μM) (SFM + 100 mM KCl): 6 to 12 µM
  MIC (μM) (SFM + 100 mM NaCl): 6 µM

## CC[C@H](C)[C@H](NC(=O)[C@H](CCCNC(=N)N)NC(=O)[C@H](CS)NC(=O)[C@H](CCCNC(=N)N)NC(=O)CNC(=O)[C@@H](N)CO)C(=O)N[C@@H](CC(C)C)C(=O)N[C@@H](Cc1ccccc1)C(=O)N[C@@H](CCCNC(=N)N)C(=O)N[C@@H](CS)C(=O)N[C@@H](Cc1ccccc1)C(=O)N[C@@H](CS)C(=O)N[C@H](C(=O)N[C@@H](CCCCN)C(=O)N[C@@H](CC(N)=O)C(=O)N[C@@H](CS)C(N)=O)[C@@H](C)O [GMA1C_V1] (H-SGRCRILFRCFCTKNC-NH2; N-terminus assumed)
B. cinerea [1]
  Reduction of gray mold symptoms at 3 and 6 μM: failed to reduce disease symptoms

## CC(C)C[C@@H]1NC(=O)[C@@H](NC(=O)[C@H](C)NC(=O)CN)CSSC[C@@H](C(=O)N[C@@H](Cc2ccc(O)cc2)C(N)=O)NC(=O)[C@H](Cc2c[nH]cn2)NC(=O)[C@H](CCCNC(=N)N)NC(=O)[C@H](Cc2ccc(O)cc2)NC(=O)[C@H](Cc2ccc(O)cc2)NC(=O)[C@H](Cc2c[nH]c3ccccc23)NC(=O)[C@H](Cc2ccccc2)NC(=O)[C@H](Cc2c[nH]c3ccccc23)NC(=O)CNC(=O)[C@H](Cc2ccc(O)cc2)NC(=O)[C@H](Cc2c[nH]cn2)NC(=O)[C@H](CCCCN)NC(=O)[C@H](CO)NC(=O)[C@H](Cc2c[nH]cn2)NC(=O)[C@H](CCCNC(=N)N)NC(=O)[C@H](CC(N)=O)NC(=O)[C@H](CCCCN)NC1=O [GMAOe1C_V3] (H-GACLKNRHSKHYGWFWYYRHCY-NH2; disulfide 3-21; N-terminus assumed)
B. cinerea [1]
  Reduction of gray mold symptoms at 1.5 μM: more effective than GMAOe1C_V4 or GMAOe1C_WT
Botrytis cinerea T-4
  MIC (μM) SFM: 1.5 µM (≈ 4.31 µg/mL)
  MIC (μM) (SFM + 2 mM CaCl2): 3 to 6 µM
  MIC (μM) (SFM + 100 mM KCl): 6 to 12 µM
  MIC (μM) (SFM + 100 mM NaCl): 2 to 3 µM

## C[C@@H](O)[C@H](NC(=O)[C@H](CS)NC(=O)[C@H](Cc1ccccc1)NC(=O)[C@H](CS)NC(=O)[C@H](CCCNC(=N)N)NC(=O)[C@H](CCCNC(=N)N)NC(=O)[C@H](CCCNC(=N)N)NC(=O)[C@H](Cc1ccccc1)NC(=O)CNC(=O)[C@H](CCCNC(=N)N)NC(=O)[C@H](CS)NC(=O)[C@H](CCCNC(=N)N)NC(=O)CNC(=O)CN)C(=O)N[C@H](C(=O)N[C@@H](Cc1c[nH]cn1)C(=O)N[C@@H](CS)C(N)=O)[C@@H](C)O [GMA4C_AC] (H-GGRCRGFRRRCFCTTHC-NH2; N-terminus assumed)
F. oxysporum
  F. oxysporum MIC: 6 μuM
B. cinerea [2]; B. cinerea, 100 mM NaCl or 100 mM KCl
  Retention of antifungal activity in presence of cations: retain their antifungal activity
B. cinerea [2]; [5]
  SFM + 2 mM CaCl2 MIC: >6 (a few μM
B. cinerea [2]; [6]
  SFM + 2 mM CaCl2 MIC: >6 (a μM
F. graminearum
  F. graminearum MIC: 3 µM
  MIC (μM) Fusarium graminearum: 3 µM (≈ 6.05 µg/mL)
  MIC Values (μM) against F. graminearum: 6 µM (≈ 12.1 µg/mL)

## C[C@@H](O)[C@H](NC(=O)[C@H](CS)NC(=O)[C@H](Cc1ccccc1)NC(=O)[C@H](CS)NC(=O)[C@H](CCCNC(=N)N)NC(=O)[C@H](CCCNC(=N)N)NC(=O)[C@H](CCCNC(=N)N)NC(=O)[C@H](Cc1ccccc1)NC(=O)CNC(=O)[C@H](CCCNC(=N)N)NC(=O)[C@H](CS)NC(=O)[C@H](CCCNC(=N)N)NC(=O)CN)C(=O)N[C@H](C(=O)N[C@@H](Cc1c[nH]cn1)C(=O)N[C@@H](CS)C(N)=O)[C@@H](C)O [GMA4AC] (H-GRCRGFRRRCFCTTHC-NH2; N-terminus and C-terminus assumed)
F. graminearum
  MIC (μM) Fusarium graminearum: 6 µM (≈ 11.8 µg/mL)

## CC[C@H](C)[C@H](NC(=O)[C@H](CCCNC(=N)N)NC(=O)[C@@H](NC(=O)[C@H](Cc1c[nH]c2ccccc12)NC(=O)[C@H](Cc1ccccc1)NC(=O)[C@H](Cc1c[nH]c2ccccc12)NC(=O)[C@H](CCCNC(=N)N)NC(=O)[C@H](CCCNC(=N)N)NC(=O)[C@H](CCCNC(=N)N)NC(=O)[C@H](Cc1ccccc1)NC(=O)CNC(=O)[C@H](CCCCN)NC(=O)[C@H](CS)NC(=O)[C@H](CCCNC(=N)N)NC(=O)CNC(=O)CN)[C@@H](C)O)C(=O)N[C@@H](CS)C(N)=O [GMA4C_V6A] (H-GGRCKGFRRRWFWTRIC-NH2; N-terminus assumed)
B. cinerea [2]
  B. cinerea MIC: 0.75 µM
  MIC (μM) Botrytis cinerea: 0.75 µM (≈ 1.64 µg/mL)
  MIC Values (μM) against B. cinerea: 0.75 µM (≈ 1.64 µg/mL)
  SFM + 2 mM CaCl2 MIC: 3 to 6 µM
  SFM + 100 mM KCl MIC: 1.5 to 3 µM
  SFM + 100 mM NaCl MIC: 0.75 to 1.5 µM
  SFM MIC: 1.5 µM
B. cinerea [2]; in vitro, low cationic conditions, B. cinerea
  Antifungal activity relative to the wild-type GMA4C_AC control: four-fold increase

## CC[C@H](C)[C@@H]1NC(=O)[C@H](CCCNC(=N)N)NC(=O)[C@@H](NC(=O)[C@H](CCCNC(=N)N)NC(=O)CNC(=O)[C@@H](N)CO)CSSC[C@@H](C(N)=O)NC(=O)[C@H](CC(N)=O)NC(=O)[C@H](CCCCN)NC(=O)[C@H]([C@@H](C)O)NC(=O)[C@H](Cc2c[nH]c3ccccc23)NC(=O)[C@H](Cc2ccccc2)NC(=O)[C@H](Cc2c[nH]c3ccccc23)NC(=O)[C@H](CCCNC(=N)N)NC(=O)[C@H](Cc2ccccc2)NC(=O)[C@H](CC(C)C)NC1=O [GMA1C_V2] (H-SGRCRILFRWFWTKNC-NH2; disulfide 4-16; N-terminus assumed)
B. cinerea [1]
  Reduction of gray mold symptoms at 1.5 μM: more effective than GMA1C_V1
  Reduction of gray mold symptoms at 3 and 6 μM: completely abrogated gray mold symptoms
Botrytis cinerea T-4
  MIC (μM) SFM: 1.5 to 3 µM
  MIC (μM) (SFM + 2 mM CaCl2): 3 µM
  MIC (μM) (SFM + 100 mM KCl): >12 µM
  MIC (μM) (SFM + 100 mM NaCl): 3 µM

## CC(C)C[C@H](NC(=O)[C@H](CS)NC(=O)[C@H](C)NC(=O)CN)C(=O)N[C@@H](CCCCN)C(=O)N[C@@H](CC(N)=O)C(=O)N[C@@H](CCCNC(=N)N)C(=O)N[C@@H](Cc1c[nH]cn1)C(=O)N[C@@H](CO)C(=O)N[C@@H](CCCCN)C(=O)N[C@@H](Cc1c[nH]cn1)C(=O)N[C@@H](Cc1ccc(O)cc1)C(=O)NCC(=O)N[C@@H](CS)C(=O)N[C@@H](Cc1ccc(O)cc1)C(=O)N[C@@H](CS)C(=O)N[C@@H](Cc1ccc(O)cc1)C(=O)N[C@@H](Cc1ccc(O)cc1)C(=O)N[C@@H](CCCNC(=N)N)C(=O)N[C@@H](Cc1c[nH]cn1)C(=O)N[C@@H](CS)C(=O)N[C@@H](Cc1ccc(O)cc1)C(N)=O [GMAOe1C_WT] (H-GACLKNRHSKHYGCYCYYRHCY-NH2; N-terminus assumed)
B. cinerea [1]; detached N. benthamiana leaves, peptide 1.5, 3 and 6 μM, 48 h after inoculation
  Reduction of gray mold disease symptoms (lesion sizes): only effective at 6 μM

## NCC[C@H](NC(=O)CNC(=O)[C@@H](N)Cc1ccccc1)C(=O)N[C@@H](CS)C(=O)N[C@@H](CCN)C(=O)NCC(=O)N[C@@H](Cc1ccccc1)C(=O)N[C@@H](CCN)C(=O)N[C@@H](CCN)C(=O)N[C@@H](CCN)C(=O)N[C@@H](CS)C(=O)N[C@@H](Cc1ccccc1)C(=O)N[C@@H](CS)C(=O)N[C@@H](Cc1c[nH]c2ccccc12)C(=O)N[C@@H](CCN)C(=O)N[C@@H](Cc1c[nH]c2ccccc12)C(=O)N[C@@H](CS)C(=O)O [GMA4C_V5, FG(Dab)C(Dab)GF(Dab)(Dab)(Dab)CFCW(Dab)WC] (H-FG[Dab]C[Dab]GF[Dab][Dab][Dab]CFCW[Dab]WC-OH; N-terminus assumed)
B. cinerea [2]; [5]
  SFM + 2 mM CaCl2 MIC: >6 (very μM
B. cinerea [2]; [6]
  SFM + 2 mM CaCl2 MIC: >6 (very μM

B1: PD91.1.1: Setaria viridis wild-type defensin SEQ ID NO: 578 with N-terminal alanine, expressed in Pichia pastoris (protein, listed as Setaria viridis)
chain: AYMCTTQNRFFHGRCVNNLNCASSCVHGRLGTGGHCATRKRSAADPGVDIDWVWNRRICVCVFQC
modifications: N-terminal alanine
[3]
  F. graminearum PH-1 MIC Day1: >12 µM
Botrytis cinerea T4
  B. cinerea T4 MIC Day1: >12 µM
[4]
  Z. tritici IPO323 MIC Day 1: 6 µM
  Z. tritici IPO323 MIC Day 7: >6 µM
  Z. tritici IPO323 MIC Day 14: >6 µM

B2: PD127.1.1: wild-type defensin-like protein SEQ ID NO: 732 with N-terminal alanine, expressed in Pichia pastoris (protein, listed as Potentilla micrantha)
chain: GACPLVQKRSKTWSGFCGSSNNCDKQCRTWEKAKHGACHATGDLKGTPRLKLRSCHARRSKDH
modifications: N-terminal alanine added
[3]
  F. graminearum PH-1 MIC Day1: >12 µM
Botrytis cinerea T4
  B. cinerea T4 MIC Day1: >12 µM
[4]
  Z. tritici IPO323 MIC Day 1: >12 µM
  Z. tritici IPO323 MIC Day 7: >12 µM
  Z. tritici IPO323 MIC Day 14: >12 µM
